In US8877707B2, “Inhibitors of HCV NS5A” (Presidio Pharmaceuticals, Inc., priority 2010, dated 2014):

tested on: HCV genotype 1b replicon in Huh 7 cells; assay: HCV replicon assay (1b_Huh-Luc/Neo-ET cell line, luciferase readout); format: cell-based; details: Hepatitis C virus, Huh-7; HCV 1b replicon; read-out: Inhibition of HCV genotype 1b
Method: Biological activity of the compounds of the invention was determined using an HCV replicon assay. The 1b_Huh-Luc/Neo-ET cell line persistently expressing a bicistronic genotype 1b replicon in Huh 7 cells was obtained from ReBLikon GMBH. This cell line was used to test compound inhibition using luciferase enzyme activity readout as a measurement of compound inhibition of replicon levels.
On Day 1 (the day after plating), each compound is added in triplicate to the cells. Plates incubated for 72 h prior to running the luciferase assay. Enzyme activity was measured using a Bright-Glo Kit (cat. number E2620) manufactured by Promega Corporation. The following equation was used to generate a percent control value for each compound. % Control=(Average Compound Value/Average Control)*100
The EC50 value was determined using GraphPad Prism and the following equation: Y=Bottom+(Top−Bottom)/(1+10^((Log IC50−X)*HillSlope))
EC50 values of compounds are repeated several times in the replicon assay.

**Q.** For `COC(=O)N[C@@H](C(=O)N1CCC[C@H]1c1ncc(-c2ccc3nc(-c4ccc(-c5cnc([C@@H]6CN(C(C)=O)CCN6C(=O)[C@H](NC(=O)OC)c6ccccc6)[nH]5)cc4)ccc3c2)[nH]1)c1ccccc1` [compound 494], which EC50 is on record?
**A.** < 1 nM

**Q.** Which EC50 does the source give for `COC(=O)N[C@@H](C)C(=O)N1CCC[C@H]1CNC(=O)c1ccc(-c2ccc3cc(-c4cnc([C@@H]5CCCN5C(=O)[C@H](C)NC(=O)OC)[nH]4)ccc3c2)cc1` [compound 564] here?
**A.** 10 to 999 nM

**Q.** `CCC(CC)[C@H](NC(=O)OC)C(=O)N1CCC[C@H]1c1ncc(-c2ccc3cc(-c4ccc5nc([C@@H]6CCCN6C(=O)[C@@H](NC(=O)OC)C(CC)CC)[nH]c5c4)ncc3c2)[nH]1` [compound 518] was tested. Which EC50 did it give?
**A.** < 1 nM

**Q.** How did the EC50 turn out when `CC[C@H](C)[C@H](NC(=O)OC)C(=O)N1CCC[C@H]1c1ncc(-c2ccc3nc(-c4ccc(-c5cnc([C@@H]6CCCN6C(=O)[C@H](NC(=O)OC)c6ccccc6)[nH]5)cc4)ccc3c2)[nH]1` [compound 492] was run?
**A.** < 1 nM

**Q.** How did the EC50 turn out when `CC[C@H](C)[C@H](NC(=O)OC)C(=O)N1CCC[C@H]1c1nc2ccc(-c3ccc4cc(-c5cnc([C@@H]6CCCN6C(=O)[C@@H](NC(=O)OC)[C@@H](C)OC)[nH]5)ccc4c3)cc2[nH]1` [compound 511] was run?
**A.** < 1 nM

**Q.** With `COC(=O)N[C@@H](C)C(=O)N1CCC[C@H]1c1ncc(-c2ccc3nc(-c4ccc(-c5cnc([C@@H]6CCCN6C(=O)[C@H](NC(=O)OC)c6ccccc6)[nH]5)cc4)ccc3c2)[nH]1` [compound 491] as the compound, how does the EC50 read?
**A.** < 1 nM

**Q.** How did the EC50 turn out when `O=C(N[C@@H](C(=O)N1CCC[C@H]1c1ncc(-c2ccc3nc(-c4ccc5nc([C@@H]6CCCN6C(=O)[C@H](NC(=O)OC6CCOCC6)c6ccccc6)[nH]c5c4)ccc3c2)[nH]1)c1ccccc1)OC1CCOCC1` [compound 508] was run?
**A.** < 1 nM

same assay, conditions: Hepatitis C virus; Table 1; genotype 1b replicon, Huh 7 cells, 72 h, luciferase; read-out: Inhibition of HCV genotype 1b

**Q.** Which EC50 does the source give for `COC(=O)N[C@H](C(=O)N1CCC[C@H]1c1ncc(-c2ccc3cc(-c4ccc5nc([C@@H]6CCCN6C(=O)[C@@H](NC(=O)OC)C(C)C)[nH]c5n4)ccc3c2)[nH]1)C(C)C` [compound 198] here?
**A.** < 1 nM

**Q.** How did the EC50 turn out when `COC(=O)N[C@H](C(=O)N1CCC[C@H]1c1ncc(-c2ccc(-c3cc4ccc(-c5cnc([C@@H]6CCCN6C(=O)[C@H](NC(=O)OC)c6ccccc6)[nH]5)cc4cn3)c(F)c2)[nH]1)C(C)C` [compound 167] was run?
**A.** < 1 nM

**Q.** `COC(=O)N[C@H](C(=O)N1CCC[C@H]1c1nc(-c2cnc3cc(-c4ccc(-c5cnc([C@@H]6CCCN6C(=O)[C@@H](NC(=O)OC)C(C)C)[nH]5)cc4)ccc3c2)c[nH]1)C(C)C` [compound 19] was tested. Which EC50 did it give?
**A.** < 1 nM

**Q.** For `COC(=O)N[C@H](C(=O)N1CCC[C@H]1c1nc2ccc(-c3ccc4cc(-c5cnc([C@@H]6CCCN6C(=O)[C@@H](NC(=O)OC)C6CCOCC6)[nH]5)ccc4n3)cc2[nH]1)C(C)C` [compound 194], which EC50 is on record?
**A.** < 1 nM

**Q.** Which EC50 does the source give for `CC[C@@H](C)[C@H](NC(=O)OC)C(=O)N1CCC[C@H]1c1ncc(-c2ccc3cc(-c4ccc5nc([C@@H]6CCCN6C(=O)[C@@H](NC(=O)OC)[C@H](C)CC)[nH]c5c4)ccc3c2)[nH]1` [compound 225] here?
**A.** < 1 nM

**Q.** `COC(=O)N[C@H](C(=O)N1CCC[C@H]1c1ncc(-c2ccc3cc(-c4ccc5nc([C@@H]6CCCN6C(=O)[C@@H](NC(=O)OC)C6CCOCC6)[nH]c5c4)ccc3c2)[nH]1)C(C)C` [compound 189] was tested. Which EC50 did it give?
**A.** < 1 nM

**Q.** With `COC(=O)N[C@H](C(=O)N1CCC[C@H]1c1nc2ccc(-c3ccc4cc(-c5cnc([C@@H]6CCCN6C(=O)[C@H](NC(=O)OC)c6ccccc6)[nH]5)ccc4n3)cc2[nH]1)C(C)C` [compound 196] as the compound, how does the EC50 read?
**A.** < 1 nM

**Q.** `COC(=O)N[C@H](C(=O)N1CCC[C@H]1c1nc(-c2ccc3cc(-c4ccc(-c5cnc([C@@H]6CCCN6C(=O)[C@@H](NC(=O)OC)C(C)C)[nH]5)cc4)cnc3c2)c[nH]1)C(C)C` [compound 21] was tested. Which EC50 did it give?
**A.** < 1 nM

**Q.** For `COC(=O)N[C@@H](C(=O)N1CCC[C@H]1c1ncc(-c2ccc(-c3nc4cc(-c5cnc([C@@H]6CCCN6C(=O)[C@H](NC(=O)OC)c6ccccc6)[nH]5)ccc4o3)cc2)[nH]1)c1ccccc1` [compound 237], which EC50 is on record?
**A.** < 1 nM

**Q.** With `COC(=O)N[C@H](C(=O)N1CCC[C@H]1c1nc2ccc(-c3ccc4cc(-c5cnc([C@@H]6CCCN6C(=O)[C@@H](NC(=O)OC)C6CCOCC6)[nH]5)ccc4c3)nc2[nH]1)C(C)C` [compound 201] as the compound, how does the EC50 read?
**A.** < 1 nM

**Q.** With `COC(=O)N[C@H](C(=O)N1CCC[C@H]1c1ncc(-c2ccc(-c3ccc4cc(-c5cnc([C@@H]6CCCN6C(=O)[C@@H](NC(=O)OC)C6CCOCC6)[nH]5)ccc4n3)cc2F)[nH]1)C(C)C` [compound 123] as the compound, how does the EC50 read?
**A.** < 1 nM

**Q.** Which EC50 does the source give for `COC(=O)N[C@H](C(=O)N1CCC[C@H]1c1nc(-c2ccc3cc(-c4ccc(-c5cnc([C@@H]6CCCN6C(=O)[C@@H](NC(=O)OC)C6CCOCC6)[nH]5)cc4C)ccc3c2)c[nH]1)C(C)C` [compound 86] here?
**A.** < 1 nM

**Q.** How did the EC50 turn out when `CC(C)(C)OC(=O)N1CCCC1c1ncc(C23CCC(c4ccc5cc(-c6c[nH]c([C@@H]7CCCN7C(=O)OC(C)(C)C)n6)ccc5n4)(CC2)CC3)[nH]1` (stereo partly shown) [compound 268] was run?
**A.** 10 to 999 nM

**Q.** For `COC(=O)N[C@H](C(=O)N1CCC[C@H]1c1nc(-c2ccc3cc(-c4ccc(-c5cnc([C@@H]6CCCN6C(=O)[C@H](NC(=O)OC)c6ccccc6)[nH]5)cc4F)ccc3c2)c[nH]1)C1CCOCC1` [compound 114], which EC50 is on record?
**A.** < 1 nM

**Q.** How did the EC50 turn out when `COC(=O)N[C@H](C(=O)N1CCC[C@H]1c1ncc(-c2ccc(-c3ccc4cc(-c5c[nH]c([C@@H]6CCCN6C(=O)[C@@H](NC(=O)OC)C6CCOCC6)n5)ccc4c3)c(C)c2)[nH]1)C(C)C` [compound 104] was run?
**A.** < 1 nM

**Q.** How did the EC50 turn out when `COC(=O)N[C@H](C(=O)N1CCC[C@H]1c1ncc(-c2ccc(-c3cc4ccc(-c5cnc([C@@H]6CCCN6C(=O)[C@@H](NC(=O)OC)C6CCOCC6)[nH]5)cc4cn3)cc2F)[nH]1)C(C)C` [compound 128] was run?
**A.** < 1 nM

**Q.** With `COC(=O)N[C@@H](C(=O)N1CCC[C@H]1c1nc(-c2ccc3c(c2)CCN(c2c(F)cc(-c4cnc([C@@H]5CCCN5C(=O)[C@H](NC(=O)OC)c5ccccc5)[nH]4)cc2F)C3)c[nH]1)c1ccccc1` [compound 270] as the compound, how does the EC50 read?
**A.** < 1 nM

**Q.** Which EC50 does the source give for `COC(=O)N[C@H](C(=O)N1CCC[C@H]1c1ncc(-c2ccc(-c3ccc4cc(-c5c[nH]c([C@@H]6CCCN6C(=O)[C@H](NC(=O)OC(C)(C)C)c6ccccc6)n5)cnc4c3)nc2)[nH]1)C(C)C` [compound 82] here?
**A.** < 1 nM

**Q.** For `COC(=O)N[C@@H](C)C(=O)N1CCC[C@H]1c1nc(-c2ccc3nc(C45CCC(c6cnc([C@@H]7CCCN7C(=O)[C@H](C)NC(=O)OC)[nH]6)(CC4)CC5)ccc3c2)c[nH]1` [compound 266], which EC50 is on record?
**A.** < 1 nM

**Q.** `COC(=O)N[C@H](C(=O)N1CCC[C@H]1c1ncc(-c2ccc(-c3ccc4cc(-c5c[nH]c([C@@H]6CCCN6C(=O)[C@H](NC(=O)OC(C)(C)C)c6ccccc6)n5)ccc4n3)cc2)[nH]1)C(C)C` [compound 35] was tested. Which EC50 did it give?
**A.** < 1 nM

same assay, conditions: Hepatitis C virus; Table 2; genotype 1b replicon, Huh 7 cells, 72 h, luciferase; read-out: Inhibition of HCV genotype 1b

**Q.** Which EC50 does the source give for `COC(=O)N[C@H](C(=O)N1CCC[C@H]1c1ncc(-c2ccc3cc(-c4ccc5nc([C@@H]6COCCN6C(=O)[C@@H](NC(=O)OC)C6CCCC6)[nH]c5c4)ccc3c2)[nH]1)C1CCCC1` [compound 350] here?
**A.** < 1 nM

**Q.** `CC[C@H](NC(=O)OC)C(=O)N1CCC[C@H]1c1ncc(-c2ccc3cc(-c4ccc5nc([C@@H]6COCCN6C(=O)[C@H](CC)NC(=O)OC)[nH]c5c4)ccc3c2)[nH]1` [compound 357] was tested. Which EC50 did it give?
**A.** < 1 nM

**Q.** For `COC(=O)N[C@H](C(=O)N1CCC[C@H]1c1ncc(-c2ccc3nc(-c4ccc5nc([C@@H]6CCCN6C(=O)[C@@H](NC(=O)OC)C6CCCCC6)[nH]c5c4)ccc3c2)[nH]1)C1CCCCC1` [compound 388], which EC50 is on record?
**A.** < 1 nM

**Q.** How did the EC50 turn out when `COC(=O)N[C@H](C(=O)N1CCC[C@H]1c1ncc(-c2ccc3cc(-c4ccc5nc([C@@H]6CCCN6C(=O)[C@@H](NC(=O)OC)C(C)C)[nH]c5c4)nnc3c2)[nH]1)C(C)C` [compound 390] was run?
**A.** < 1 nM
